{
  "source": "patent US9234178B2",
  "about": "“Differentiation of human pluripotent stem cells” (Janssen Biotech, Inc., priority 2008, dated 2016)",
  "type_in_all_cases": "cell-based, human",
  "key": {"islet-like clusters": {"tested_on": "islet-like clusters", "assay": "CDK inhibitor III treatment of islet-like clusters in suspension (Stage 7): PCR and dithizone staining (Example 4)", "settings": "1 μm", "method": "The medium was changed daily.\nAfter stage 6, the cells were treated for 5 mins at room temperature with 1× accutase (Sigma, Mo.). The accutase was removed, and DMEM/12+1% B27 was added to the cells. The attached cells were removed using a cell scarper and gently resuspended and passed through a 40 μm cell strainer. The cells retained on the strainer were removed by rinsing in basal media and cultured in suspension on Ultra-Low culture plates (Catalogue#3471, Corning, Ma). […] Cells treated with vehicle were included as controls. Samples were collected at days 7 through 10 for PCR analysis and dithizone staining. The cells cultured in suspension according to the methods outlined in this example assumed a morphology similar to pancreatic islet clusters."}, "insulin-producing cells [1]": {"tested_on": "insulin-producing cells", "assay": "FACS analysis of insulin producing cells (Example 5)", "settings": "1 μM for 5 days", "method": "(§1) DMEM/F12+1% B27 for seven days (Stage 6), then • g. Treatment with Accutase for 5 minutes, followed by scraping to remove any remaining attached cells. The cell suspension was then passed through a 40 μm cell strainer. The cells retained on the strainer were removed by rinsing in basal media and cultured in suspension on Ultra-Low culture plates in DMEM-High Glucose (Catalogue#11995-073, Invitrogen, Ca)+1% B27+20 ng/ml of activin A (AA) 1 μm of CDK inhibitor III (Catalog#217714, Calbiochem, Ca) for 5 days (Stage 7).\nIslet-like clusters were dispersed into single cells using TrypLE Express (Invitrogen, Carlsbad, Calif.) and washed in cold PBS. For fixation, the cells were resuspended in 200-300 μl Cytofix/Cytoperm Buffer (BD 554722, BD, Ca) and incubated for 30 min at 4° C. Cells were washed two times in 1 ml Perm/Wash Buffer Solution (BD 554723) and resuspended in 100 μl staining/blocking solution containing 2% normal goat serum in Perm/Wash buffer. For flow cytometric analysis, cells were stained with the following primary antibodies: Anti-Insulin (Rabbit mAb, Cell Signaling No. C279; 1:100 dilution); Anti-Glucagon (Mouse Mab, Sigma No. G2654, 1:100); Anti-Synaptophysin (Rabbit Polyclonal antibody, DakoCytomation No A0010, 1:50). […] Cells were washed at least once in Perm/Wash buffer and analyzed using BD FACSArray. […]"}, "insulin-producing cells [2]": {"tested_on": "insulin-producing cells", "assay": "Kinetics of CDK inhibitor-induced MAFA expression, PCR (Example 6)", "method": "as §1, with “A (AA) 2 μm of” for “A (AA) 1 μm of”, “Ca) for 1-8 days (Stage” for “Ca) for 5 days (Stage”\nSamples were collected for PCR analysis at days 1, 2, 3, and 4."}, "[3]": {"settings": "Stage 7, days 7 through 10, PCR"}, "[4]": {"settings": "2 μm, days 1-4 of stage 7, increased as a function of time"}, "[5]": {"settings": "four days after removal of the compound"}},
  "data": [
    {"compound": "Nc1nc(Nc2ccc(S(N)(=O)=O)cc2)nn1C(=S)Nc1c(F)cccc1F", "note": "[PubChem ID#5330812, 5-Amino-3-((4-(aminosulfonyl)phenyl)amino)-N-(2,6-difluorophenyl)-1H-1,2,4-triazole-1-carbothioamide]", "values": [
      {"measurement": "expression of markers associated with the pancreatic endocrine lineage", "setting": "islet-like clusters; [3]", "value": "increased the expression"},
      {"measurement": "expression of the pro-insulin transcription factor MAFA", "setting": "islet-like clusters; [3]", "value": "increased the expression"},
      {"measurement": "dithazone (DTZ) staining of clusters", "setting": "islet-like clusters; Stage 7, versus untreated clusters", "value": "more reddish staining pattern"},
      {"measurement": "percentage of poly hormonal (insulin and glucagon positive) cells", "setting": "insulin-producing cells [1]; Stage 7, versus vehicle", "value": "decreased"},
      {"measurement": "single hormonal insulin positive cells", "setting": "insulin-producing cells [1]; Stage 7, vehicle 3%", "value": 8, "unit": "%"},
      {"measurement": "MAFA expression", "setting": "insulin-producing cells [2]; [4]", "value": "significant increase"},
      {"measurement": "insulin expression", "setting": "insulin-producing cells [2]; [4]", "value": "significant increase"},
      {"measurement": "MAFA expression after removal of CDK inhibitor", "setting": "insulin-producing cells [2]; [5]", "value": "significant drop"},
      {"measurement": "insulin expression after removal of CDK inhibitor", "setting": "insulin-producing cells [2]; [5]", "value": "significant drop"}
    ]}
  ]
}
